Measured values as given in patent US20160206583A1, “AMINO ACID TREATMENT OF SEIZURES” (THE JOHNS HOPKINS UNIVERSITY, priority 2013, published 2016).

Tests used:
[1] = tested on: kainic acid-induced seizures; experiment: Kainic acid status epilepticus test; assay type: in vivo, mice
Method: Male NIH Swiss mice (NCI, Frederick, Md., U.S.A.) aged 3-4 weeks were acclimatized to the animal care facility for 1-5 days and housed four per cage. All mice were fed unrestricted normal rodent chow (Teklad Global 2018SX, Madison, Wis., U.S.A.). Only in experiments lasting 2 weeks, mice were fasted overnight before the D-leucine was administered in drinking water.
[…] Louis, Mo., U.S.A.) or given D-leucine in drinking water (1.5% w/v) for 13 days after an initial overnight fast. […] Louis, Mo., U.S.A.).
Each mouse was tested for seizures only once. Personnel performing seizure testing and assessments were blinded to treatment group assignments. Seizure tests were performed 3 h following a single dose of D-leucine, 15-25 min after the administration of kainic acid, or after 13 days of D-leucine exposure in drinking water.
Kainic acid was injected intraperitoneally (22.5-25 mg kainic acid/kg mouse body mass, 5.3 mg/ml PBS, Tocris Bioscience, Ellisville, Mo., U.S.A.) as described previously (Hartman et al., 2012). Mice were observed continuously in plexiglass cages for the duration of the experiment. Seizure behaviors were scored for 2 h using a modified Racine scale (the highest score in a given 5-min block was used): 0, no seizure; 1, immobility; 2, forelimb and/or tail extension; 3, automatisms; 4, forelimb clonus, rearing, and/or falling; 5, repetition of stage 4; 6, tonic-clonic seizures; and 7, death (Hartman et al., 2010). As the mouse behaviors only occur intermittently, the highest seizure score achieved in a 5 min epoch was recorded.
Probit analyses (used in the 6 Hz test to determine the current where half the mice experienced any seizure behavior, or CC50, was performed using Minitab 16 (State College, Pa., U.S.A.). The level of significance in the 6 Hz test was 0.05. T-tests and one-way ANOVAs were performed using GraphPad Prism 4 (LaJolla, Calif., U.S.A.). In the kainic acid test, one-way ANOVAs were performed for multiple comparisons of 3 treatment groups. When 2 groups were compared in the kainic acid test, the level of significance was 0.01 (because 3-4 parameters were measured simultaneously, this represents a Bonferroni correction of a typical level of significance of 0.05).

6 Hz-induced seizures = experiment: 6 Hz test; assay type: in vivo, mice; conditions: D-leucine 1.5% w/v in drinking water for 13 days
Method: Male NIH Swiss mice (NCI, Frederick, Md., U.S.A.) aged 3-4 weeks were acclimatized to the animal care facility for 1-5 days and housed four per cage. All mice were fed unrestricted normal rodent chow (Teklad Global 2018SX, Madison, Wis., U.S.A.). Only in experiments lasting 2 weeks, mice were fasted overnight before the D-leucine was administered in drinking water. At 5 weeks of age, mice were injected intraperitoneally with D-leucine 3 mg/kg (“low dose”) or 300 mg/kg (“high dose”) body weight (Sigma-Aldrich, St. Louis, Mo., U.S.A.) or given D-leucine in drinking water (1.5% w/v) for 13 days after an initial overnight fast. […] Probit analyses (used in the 6 Hz test to determine the current where half the mice experienced any seizure behavior, or CC50, was performed using Minitab 16 (State College, Pa., U.S.A.). The level of significance in the 6 Hz test was 0.05. T-tests and one-way ANOVAs were performed using GraphPad Prism 4 (LaJolla, Calif., U.S.A.). In the kainic acid test, one-way ANOVAs were performed for multiple comparisons of 3 treatment groups. When 2 groups were compared in the kainic acid test, the level of significance was 0.01 (because 3-4 parameters were measured simultaneously, this represents a Bonferroni correction of a typical level of significance of 0.05).

AMPA receptor = conditions: hippocampal neurons; Gong et al., 2007; cited from earlier work
[2] = tested on: GAERS (Genetic Absence Epilepsy Rats from Strasbourg) Wistar rats; conditions: intracerebroventricular or intrathalamic routes; Koerner et al., 1996; cited from earlier work
[3] = tested on: maximal electroshock-induced seizures; conditions: literature (Peterson, 1991; Kalinichev et al., 2010); cited from earlier work
amygdala-kindled rats = conditions: dose-dependent, Loscher et al., 1994; cited from earlier work
[4] = tested on: hexafluorodiethyl ether seizures; conditions: Gallagher, 1969; cited from earlier work
[5] = tested on: pentylenetetrazol-induced seizures; conditions: Dufour et al., 1999, cited from earlier work
[6] = tested on: picrotoxin-induced seizures; conditions: rats; Skeie et al., 1994; cited from earlier work
[7] = D-leucine 300 mg/kg 15 min after kainic acid (after seizure onset)
[8] = pretreatment, D-leucine 3 mg/kg i.p. 3 h before kainic acid (23.5 mg/kg)
[9] = pretreatment, D-leucine 300 mg/kg i.p. 3 h before kainic acid (23.5 mg/kg)
[10] = CBIO 10 mg/kg 15 min after kainic acid
[11] = pretreatment, CBIO 10 mg/kg three hours prior to kainic acid
[12] = D-serine 3 mg/kg 15 min after kainic acid
[13] = D-serine 300 mg/kg 15 min after kainic acid

CC(C)C[C@@H](N)C(=O)O [D-leucine]
protection against seizures induced by kainic acid ([1]; D-leucine 3 mg/kg 15 min after the onset of seizures (FIGS. 4C-4D)): protects against seizures | seizure outcome compared with diazepam (10 mg/kg) ([1]; D-leucine 3 mg/kg 20 min after kainic acid (25 mg/kg)): not inferior to treatment with diazepam | mean seizure score [1, 7]: no effect | number of epochs with a seizure score ≧2 [1, 7]: decreased | maximum seizure score ([1]; D-leucine 300 mg/kg 15 min after kainic acid (after seizure onset), trend noted): no effect | protection against seizures ([1]; pretreatment, D-leucine 0.3 mg/kg 3 h before kainic acid (23.5 mg/kg)): did not protect against seizures | mean seizure score [1, 8]: decreased | number of epochs with a seizure stage ≧2 [1, 8]: decreased | maximum seizure score ([1]; pretreatment, D-leucine 0.3, 3 or 300 mg/kg vs water, 3 h before kainic acid): no difference between groups | latency to onset of seizure stage ≧2 [1, 9]: prolonged | mean seizure score [1, 9]: decreased | number of epochs with a seizure stage ≧2 [1, 9]: decreased | CC50 (current where half of mice had a convulsion) (6 Hz-induced seizures): increased | kainic acid-induced AMPA receptor-mediated current (AMPA receptor): inactive

Oc1noc2ccc(Cl)cc12 [CBIO, 5-chloro-benzo[d]isoxazol-3-ol]
maximum seizure score [1, 10]: no effect | mean seizure score [1, 10]: decrease | number of epochs with a seizure stage ≧2 [1, 10]: decrease | latency to seizure stage ≧2 [1, 11]: no effect | maximum seizure score [1, 11]: no effect | mean seizure score [1, 11]: decreased | number of epochs with a seizure stage ≧2 [1, 11]: decreased

N[C@H](CO)C(=O)O [D-serine]
maximum seizure score [1, 12]: decrease | mean seizure score [1, 12]: decrease | number of epochs with a seizure stage ≧2 [1, 12]: decrease | maximum seizure score [1, 13]: no effect | mean seizure score [1, 13]: decrease | number of epochs with a seizure stage ≧2 [1, 13]: decrease | effect on spike wave discharges [2]: no effect | kainic acid-induced AMPA receptor-mediated current (AMPA receptor): inhibits | protection against maximal electroshock-induced seizures [3]: weak but statistically significant protection | after discharge thresholds (amygdala-kindled rats): increases

CC(C)C[C@H](N)C(=O)O [L-leucine]
protection against hexafluorodiethyl ether seizures [4]: not | protection against pentylenetetrazol-induced seizures ([5]; rats): protects | protection against picrotoxin-induced seizures [6]: protects

CC(C)CC(=O)C(=O)O [α-ketoisocaproic acid]
activity in the PTZ test [5]: not active
